Where two headings read alike, the source gives them in different places. Non-standard residues stand in square brackets, D forms with d. Residues, ends and D or L forms follow the SMILES beside them.

In data set [1] the target is BIV TAR RNA. Briefly: EMSA binding to BIV TAR. The following applies: positional scanning library, Table S1. The protocol:
(§1) Electro Mobility Shift Assays (EMSA) and 2-aminopurine fluorescence ([35]) were used to measure peptide binding. For EMSA, all RNAs were 5′-dephosphorylated ([25],[26]) and 5′-rephosphorylated using T4 Polynucleotide Kinase (PNK); shifts were performed and analyzed as previously described ([14]). The P-TEFb/Tat1:57/AFF4 binding assays were run as described ([11]), with protein samples generously donated by Drs Ursula Schulze-Gahmen and James Hurley, but binding buffers contained 250× fold excess yeast tRNA. JB181-bound samples were prepared with 3× excess labeled HIV-TAR prior to titration with the pre-formed P-TEFb/Tat1:57/AFF4 complex.
(§2) Fig. S1. a) HIV-1 TAR, BIV TAR and 7SK-SL4 RNAs have similar secondary structures, but the JB181 peptide discriminates between them. […]
(§3) tightly than BIV TAR (3.3 nM) or 7SK (>3 μM) RNAs. b) EMSA of representative JB-peptides with 32P radiolabeled HIV-1 TAR RNA ([RNA]=75pM). The peptide concentration increases from left to right, as indicated. The dissociation constant can be estimated by the peptide concentration where there is an approximate 1:1 ratio (as established by visual inspection) between free RNA and complex, since the RNA concentration is much lower than the KD.
(§4) (1 picture or pasted object on this page, not shown here)

In data set [2] the target is HIV-1 TAR RNA. In kind it is binding. The settings on record: EMSA, positional scanning library, Table S1. The protocol: as §1, §2, §3, §4
In data set [3] the test system is Jurkat clone E4 (latent HIV provirus with LTR-driven GFP). The experiment in a line: Reactivation from latency. In kind it is cell-based, HIV-1. The settings on record: E4 Jurkat cells, peptides 0.39-100 μM, TNFα 1 ng/ml, GFP by flow cytometry 24 h later, triplicate. How it is done: A 5 × 10^4 cells/well of Jurkat clone E4 (in RPMI ([38])) were added to a 96-well plate at the same time as a dilution series of JB181, cyclic L22 and linear L22 (0.39, 1.56, 6.25, 25, 50 and 100 μM) in triplicate. Four hours following peptide addition, tumor necrosis factor α (TNFα) (1 ng/ml, Peprotech, Rocky Hill, NJ) was added to stimulate HIV-1 transcription. Twenty-four hours later, the percentage of cells expressing GFP was determined by flow cytometry as described above.
Figure 3. (A) M7-luc cells were infected with the replication competent HIV-1 clone NLgNef at very low titer. Three days post-infection, GFP expression was measured by flow cytometry. […] (B) JB181 inhibits HIV-1 reactivation from latency. Tat-dependent expression of GFP is repressed in E4 Jurkat cells, which serve as a model of HIV latency. These cells were pre-incubated for 2 h with L22 (cyclic, green), L22 (linear, blue) or JB181 (cyclic, red) at concentrations 0.5–100 μM, then stimulated for reactivation by TNFα at 1ng/ml. Twenty-four hours later, reactivation as monitored by GFP expression was measured by flow cytometry. […] (C) Biochemical RT inhibition assays were conducted as described previously ([31]) for peptides JB59, JB60, JB181 and L50 along with AZT. (D) Competition EMSA comparing affinity of the P-TEFb/Tat1:57/AFF4 complex for wild-type HIV-TAR with or without JB181 pre-bound to TAR. […]

Data set [4] has as its system HIV-1 clone NLgNef in M7-luc cells. Briefly: Spreading infection (inhibition of viral spread). In kind it is cell-based. The following applies: M7-luc cells infected with NLgNef. How it is done: A 5 × 10^6 5.25.EGFP.Luc.M7 cells (M7-luc, gift of N. Landau(36)) grown in Roswell Park Memorial Institute medium (RPMI) containing 25 mM 4-(2-hydroxyethyl)-1-piperazineethanesulfonic acid (HEPES) (GE Life Sciences, Pittsburgh, PA), 10% Fetal Bovine Serum (FBS) (Sigma, St. Louis, MO) and 100 μg/ml normocin (Invivogen, San Diego, CA) were infected with the HIV-1 strain NL43-GFP-IRES-Nef (NLgNef) that expresses Green Fluorescent Protein (GFP) and Nef on a bicistronic Nef messenger RNA (a gift of David Levy ([37])) at a low multiplicity of infection (<0.01 infectious units/cell). […] Forty-eight hours post peptide addition, the percentage of cells expressing GFP was determined by flow cytometry via BD Fortessa SORP (BD, Franklin Lakes, NJ). Flow cytometry data were analyzed using WinList 3D (Verity Software House, Topsham, ME). […]
To evaluate anti-viral potency, we tested compound JB181 for inhibition of viral spread (Figure 3A) by comparison with L22 and a linear peptide control (same sequence as L22 but not cyclized). […] Peptides were added 24 h post-infection and spread of infection determined after 72 h. […]
Figure 3. […] Three days post-infection, GFP expression was measured by flow cytometry. […] Twenty-four hours later, reactivation as monitored by GFP expression was measured by flow cytometry. […]

In data set [5] the test system is JB59 (synthetic). Briefly: EMSA.
The subject of data set [6] is JB185 (synthetic). Briefly: EMSA.
Data set [7] relates to JB58 (synthetic). The experiment in a line: EMSA.
Data set [8] relates to JB186 (synthetic). The experiment in a line: EMSA.
Data set [9] deals with P-TEFb/Tat1:57/AFF4;JB181 (HIV-1 (Tat); human? (P-TEFb, AFF4);synthetic) (UniProt O60563+P50750+P04608+Q9UHB7). The experiment in a line: EMSA.
The subject of data set [10] is L22 (synthetic). Briefly: EMSA.
Data set [11] concerns JB190 (synthetic). The experiment in a line: EMSA.
The subject of data set [12] is JB181 (synthetic). Briefly: EMSA.
Data set [13] concerns JB184 (synthetic). The experiment in a line: EMSA.
The test system of data set [14] is JB181 (synthetic). The experiment in a line: 2-aminopurine fluorescence. The settings on record: C24 replaced by 2-aminopurine.
The target in data set [15] is P-TEFb/Tat1:57/AFF4 (HIV-1 (Tat); (P-TEFb, AFF4), UniProt O60563;P50750;P04608;Q9UHB7 1-264;1-330;1-57;2-73). The experiment in a line: EMSA; 250-fold excess yeast tRNA; RNA 100 pM. The following applies: protein: recombinant; copies: 1;1;1;1; label: 5'-32P; hairpin with UCU bulge.
Setting [16] is: with tRNA, read-out: Kd (nM) w/tRNA.
The mark [17] stands for this setting: without tRNA, read-out: Kd (nM) no tRNA.

In the case of `CC[C@H](C)[C@@H]1NC(=O)[C@H](CCCNC(=N)N)NC(=O)[C@H](CCCNC(=N)N)NC(=O)CNC(=O)[C@H](CCCCN)NC(=O)[C@H](CCCNC(=N)N)NC(=O)[C@H]([C@@H](C)O)NC(=O)[C@H](CCCNC(=N)N)NC(=O)[C@H](C)NC(=O)[C@H](CCCNC(=N)N)NC(=O)[C@@H]2CCCN2C(=O)[C@H]2CCCN2C(=O)[C@H]([C@@H](C)CC)NC(=O)[C@H](CCCNC(=N)N)NC1=O` [JB-66] (cyclo(RARTRKGRRIRI[dP]P)), the Kd in data set [1] is 1 nM; in data set [2] (setting [16]), 100 nM; in data set [2] (setting [17]) it was 1 nM.

On to `CC[C@H](C)[C@@H]1NC(=O)[C@H](CCCNC(=N)N)NC(=O)[C@H](C)NC(=O)[C@H](CCCNC(=N)N)NC(=O)[C@H](CCCNC(=N)N)NC(=O)CNC(=O)[C@H](CCCCN)NC(=O)[C@H](CCCNC(=N)N)NC(=O)[C@H]([C@@H](C)O)NC(=O)[C@H](CCCNC(=N)N)NC(=O)[C@H](C(C)C)NC(=O)[C@H](CCCNC(=N)N)NC(=O)[C@@H]2CCCN2C(=O)[C@H]2CCCN2C1=O` [JB-75] (cyclo(RVRTRKGRRARI[dP]P)), for which the figures for the Kd in [1], in data set [2] (setting [16]) and in data set [2] (setting [17]) were 1 to 5 nM, 300 nM and 5 nM, respectively.

As to `CC[C@H](C)[C@@H]1NC(=O)[C@H](CCCNC(=N)N)NC(=O)[C@H](C(C)C)NC(=O)[C@H](CCCNC(=N)N)NC(=O)[C@H](CCCNC(=N)N)NC(=O)CNC(=O)[C@H](CCCCN)NC(=O)[C@H](CCCNC(=N)N)NC(=O)[C@H]([C@@H](C)O)NC(=O)[C@H](CCCNC(=N)N)NC(=O)[C@H](C(C)C)NC(=O)[C@H](CCCNC(=N)N)NC(=O)[C@@H]2CCCN2C(=O)[C@H]2CCCN2C1=O` [JB-76] (cyclo(RVRTRKGRRVRI[dP]P)), the Kd in data set [1] is 1 nM; in data set [2] (setting [16]), below 50 nM; in data set [2] (setting [17]), 1 nM.

`CC[C@H](C)[C@@H]1NC(=O)[C@H](CCCNC(=N)N)NC(=O)[C@H](CCCNC(=N)N)NC(=O)CNC(=O)[C@H](CCCCN)NC(=O)[C@H](CCCNC(=N)N)NC(=O)[C@H]([C@@H](C)O)NC(=O)[C@H](CCCNC(=N)N)NC(=O)[C@H](C(C)C)NC(=O)[C@H](CCCNC(=N)N)NC(=O)[C@@H]2CCCN2C(=O)[C@H]2CCCN2C(=O)[C@H](C(C)C)NC(=O)[C@H](CCCNC(=N)N)NC1=O` [JB-84] (cyclo(RVRTRKGRRIRV[dP]P)): the Kd in data set [1] was determined as 1 nM; in data set [2] (setting [16]), 50 nM; in data set [2] (setting [17]) it was 1 nM.

On to `CC[C@H](C)[C@@H]1NC(=O)[C@H](CCCNC(=N)N)NC(=O)[C@H](CCCNC(=N)N)NC(=O)CNC(=O)[C@H](CCCCN)NC(=O)[C@H](CCCNC(=N)N)NC(=O)[C@H]([C@@H](C)O)NC(=O)[C@H](CCCNC(=N)N)NC(=O)[C@H](C(C)C)NC(=O)[C@H](CCCNC(=N)N)NC(=O)[C@@H]2CCCN2C(=O)[C@H]2CCCN2C(=O)[C@H](CC(C)C)NC(=O)[C@H](CCCNC(=N)N)NC1=O` [JB-85] (cyclo(RVRTRKGRRIRL[dP]P)), for which the results for the Kd in [1], in data set [2] (setting [16]) and in data set [2] (setting [17]) were 1 nM, 50 nM and 5 nM, respectively.

`CC[C@H](C)[C@@H]1NC(=O)[C@H](CCCNC(=N)N)NC(=O)[C@H](CCCNC(=N)N)NC(=O)CNC(=O)[C@H](CCCCN)NC(=O)[C@H](CCCNC(=N)N)NC(=O)[C@H]([C@@H](C)O)NC(=O)[C@H](CCCNC(=N)N)NC(=O)[C@H](C(C)C)NC(=O)[C@H](CCCNC(=N)N)NC(=O)[C@@H]2CCCN2C(=O)[C@H]2CCCN2C(=O)[C@H]([C@@H](C)CC)NC(=O)[C@H](CCCNC(=N)N)NC1=O` [Peptide L22] (cyclo(RVRTRKGRRIRI[dP]P)): the “inhibition of HIV-1 reactivation from latency (in words)” value in [3] is “inhibit at similar levels”; in data set [3] (listed as cyclic L22), “blocked reactivation”. Further, the “reduction of infection compared to no peptide controls” value in [4] (peptides 12.5 to 100 μM added 24 h post-infection, % GFP-expressing cells by flow cytometry, triplicate) is recorded as above 50%. Moreover, the “inhibition of viral replication and spread (in words)” value in data set [4] (peptides 12.5 to 100 μM, GFP by flow cytometry) is “blocked replication and spread”.

As for “GGCAGAUCUGAGCCUGGGAGCUCUCUGCC [HIV-1 TAR]”, the Kd is 1 nM in data set [5]; 0.5 nM in data set [6]; 3 nM in data set [7]; 1.2 nM in data set [8]; 17 nM in data set [9]; 30 nM in data set [10]. Also, the Kd is 1.6 nM in [11], below 0.18 nM in data set [12] and above 250 nM in [13].

With HIV-1 TAR C24 2-aminopurine, the Kd in [14] came out at 0.028 nM.

For GGCAGAUCUGAGCCUGGGAGCUCUCUGCC (structured_RNA) [HIV-1 TAR], in data set [15], the Kd worked out at 9 ± 4 nM.

These data come from PMC6379670, “An ultra-high affinity ligand of HIV-1 TAR reveals the RNA structure recognized by P-TEFb” (Nucleic Acids Research, 2018).
